US20100144712A1 (priority 2007, published 2010)
Values after ≈ are worked out from the molar mass of the structure shown.

Legend:
Assay type in all cases: cell-based
[1] = test system: Candida albican ATCC MYA-575; test: In vitro antifungal activity (MIC80), Candida albican ATCC MYA-575; settings: Candida; Table 2, MYA 575; read-out: Minimal inhibitory concentration (MIC80)
Summary of the method: (§1)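 MIC80 is the lowest concentration that cuts growth by 80% compared with untreated cells, with alamarBlue as the growth read-out. Compounds were serially diluted in RPMI 1640 (0.25–256 […]; DMSO 2% v/v final) and added to 1.0×10^3–5.0×10^3 CFU/ml yeast suspensions, in duplicate runs.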

[2] = test system: Candida albican ATCC MYA-574; test: In vitro antifungal activity (MIC80), Candida albican ATCC MYA-574; settings: Candida; Table 2, MYA 574; read-out: Minimal inhibitory concentration (MIC80)
Summary of the method: as §1

[3] = test system: Candida albican ATCC 204276; test: In vitro antifungal activity (MIC80), Candida albican ATCC 204276; settings: ATCC204276, Table 2, 204276, read-out: Minimal inhibitory concentration (MIC80)
Protocol: (§2) In vitro antifungal activities of the inventive antifungal compounds were evaluated using test strains including Candida albican (ATCC 90873, 204276, 62342, 64124, 64550, 96901, MYA-573, MYA-574, MYA-575, MYA-576, MYA-1003) and Aspergillus fumigatus (ATCC 16424). Test samples and positive control samples were prepared by dissolving the inventive compounds and comparative compounds, i.e., amphotericin B, fluconazole and itraconazole, in DMSO, respectively, and each successively diluted with medium to obtain test and positive control solutions having test compound concentrations of 0.125 μg/ml to a maximum concentration not generating turbidity. Minimal inhibitory concentration (MIC80) of each compound was determined as the lowest concentration of the test compounds required to reduce growth by 80% relative to a control strain not treated.
(§3) 1) Test strain: Candida albican ATCC 90873, 204276, 62342, 64124, 64550, 96901, MYA-573, MYA-574, MYA-575, MYA-576, MYA-1003, and Aspergillus fumigatus ATCC 16424 were commercially obtained from The American Type Culture Collection (ATCC) and subcultured in CHEMON Co. Ltd. (amphotericin B was commercially purchased from Sigma, and fluconazole and itraconazole were prepared according to methods described in British Patent No. 2,099,818; and U.S. Pat. No. 4,267,179, respectively).
(§4) 2) Medium and culture condition: Candida albican was cultured in Sabourad Dextrose Agar, YM Agar or Potato Dextrose Agar according to ATCC information at a temperature of 37° C., 35° C., 30° C. or 25° C. Aspergillus fumigatus was cultured in Malt Extract Agar or Potato Dextrose Agar at a temperature ranging from 24 to 27° C.
(§5) 3) Preparation of test samples: the inventive compounds and comparative compounds were each diluted with DMSO to obtain 1 to 2 ml of a test sample in a concentration of 100-folds of the determining maximum concentration (256 μg/ml).
(§6) The test samples were each successively diluted with RPMI 1640 to obtain test solutions having concentrations of […] in a 12×75 mm sterilized disposable culture tube. The final concentration of DMSO was adjusted to […] (v/v).
(§7) 5) Preparation of strain solution and inoculation
(§8) Candida albican strains were each subcultured in Sabourad Dextrose Agar, YM Agar or Potato Dextrose Agar medium at 35° C. for 2˜3 days. In the case of yeasts, a single colony was taken from prominent colonies and suspended in 0.85% sterile physiological saline solution and the turbidity of the suspension was adjusted to 80˜82% at 530 nm, and then diluted 50-fold with RPMI 1640 medium to 1.0×10^3˜5.0×10^3 CFU/ml. The turbidity of fungi was adjusted to 80˜82% and the suspension was diluted 50-fold to […]. Aspergillus fumigatus strains were subcultured in Malt Extract Agar for 7˜10 days, and a single colony was taken from prominent colonies and suspended in 0.85% sterile physiological saline solution and the suspension was adjusted to 0.108 at 530 nm, and then diluted 1000-fold with RPMI 1640 medium to 0.4×10^2˜5×10^4 CFU/ml. The turbidity of fungi was adjusted to 80˜82% and the suspension was diluted 50-fold to 0.4102˜0.5104 CFU/ml.
(§9) The strain solutions thus obtained were each seeded into a sterilized 96-well microplate, 0.1 ml of each test solution were added thereto, and […] of alamarblue was treated to each well (Biosource, #DAL1100). This procedure was repeated 2 times.
(§10) Minimal inhibitory concentration (MIC80) of each compound was determined as the lowest concentration of the test compounds required to reduce growth by 80% relative to a control strain not treated.

[4] = test system: Candida albican ATCC 64550; test: In vitro antifungal activity (MIC80), Candida albican ATCC 64550; settings: Candida, ATCC64550; Table 2, 64550; read-out: Minimal inhibitory concentration (MIC80)
Summary of the method: as §1

[5] = test system: Aspergillus fumigatus (ATCC 16424); test: In vitro antifungal activity (MIC80), Aspergillus fumigatus ATCC 16424; settings: Aspergillus fumigatus, ATCC16424, Table 2, ATCC 16424; read-out: Minimal inhibitory concentration (MIC80)
Protocol: as §2, §3, §4, §5, §6, §7, §8, §9, §10
MIC80 of each of the compounds of which antifungal activities can be confirmed by Table 2 was determined using other test strains, i.e., Aspergillus fumigatus ATCC 16424 and MYA-1163, Aspergillus terreus ATCC 28301, Aspergillus flavus ATCC MYA-1004, and Aspergillus niger ATCC 9142.

[6] = test system: Candida albican ATCC 64124; test: In vitro antifungal activity (MIC80), Candida albican ATCC 64124; settings: Candida, ATCC64124; Table 2, 64124; read-out: Minimal inhibitory concentration (MIC80)
Summary of the method: as §1

[7] = test system: Candida albican ATCC MYA-576; test: In vitro antifungal activity (MIC80), Candida albican ATCC MYA-576; settings: Candida; Table 2, MYA 576; read-out: Minimal inhibitory concentration (MIC80)
Summary of the method: as §1

[8] = test system: Candida albican ATCC 62342; test: In vitro antifungal activity (MIC80), Candida albican ATCC 62342; settings: Candida, ATCC62342; Table 2, 62342; read-out: Minimal inhibitory concentration (MIC80)
Summary of the method: as §1

[9] = test system: Candida albican ATCC MYA-573; test: In vitro antifungal activity (MIC80), Candida albican ATCC MYA-573; settings: Candida; Table 2, MYA 573; read-out: Minimal inhibitory concentration (MIC80)
Summary of the method: as §1

[10] = test system: Candida albican ATCC 96901; test: In vitro antifungal activity (MIC80), Candida albican ATCC 96901; settings: Candida, ATCC96901; Table 2, ATCC 96901; read-out: Minimal inhibitory concentration (MIC80)
Summary of the method: as §1

[11] = test system: Candida albican ATCC MYA-1003; test: In vitro antifungal activity (MIC80), Candida albican ATCC MYA-1003; settings: Candida; Table 2, MYA 1003; read-out: Minimal inhibitory concentration (MIC80)
Summary of the method: as §1

[12] = test system: Candida albican ATCC 90873; test: In vitro antifungal activity (MIC80), Candida albican ATCC 90873; settings: Candida, ATCC90873; Table 2, ATCC 90873; read-out: Minimal inhibitory concentration (MIC80)
Summary of the method: as §1

| Compound | MIC80 [1] | MIC80 [2] | MIC80 [3] | MIC80 [4] | MIC80 [5] | MIC80 [6] | MIC80 [7] | MIC80 [8] | MIC80 [9] | MIC80 [10] | MIC80 [11] | MIC80 [12] |
| --- | --- | --- | --- | --- | --- | --- | --- | --- | --- | --- | --- | --- |
| C[C@@H](N1CCN(c2nc3ccccc3o2)CC1)[C@](O)(Cn1cncn1)c1ccc(F)cc1F [Example 1, (2R,3R)-3-(4-(benzooxazol-2-yl)piperazin-1-yl)-2-(2,4-difluorophenyl)-1-(1H-1,2,4-triazol-1-yl)butan-2-ol] | 32 µg/mL (≈ 70.4 µM) | 32 µg/mL (≈ 70.4 µM) | 0.125 µg/mL (≈ 0.275 µM) | 1 µg/mL (≈ 2.2 µM) | 0.5 µg/mL (≈ 1.1 µM) | 4 µg/mL (≈ 8.8 µM) | 0.125 µg/mL (≈ 0.275 µM) | 0.125 µg/mL (≈ 0.275 µM) | 1 µg/mL (≈ 2.2 µM) | 4 µg/mL (≈ 8.8 µM) | 128 µg/mL (≈ 282 µM) | 0.125 µg/mL (≈ 0.275 µM) |
| C[C@@H](N1CCN(Cc2ccco2)CC1)[C@](O)(Cn1cncn1)c1ccc(F)cc1F [Example 43, (2R,3R)-2-(2,4-difluorophenyl)-3-(4-((furan-2-yl)methyl)piperazin-1-yl)-1-(1H-1,2,4-triazol-1-yl)butan-2-ol] | 128 µg/mL (≈ 307 µM) | 128 µg/mL (≈ 307 µM) | 0.125 µg/mL (≈ 0.299 µM) | 16 µg/mL (≈ 38.3 µM) | 64 µg/mL (≈ 153 µM) | 64 µg/mL (≈ 153 µM) | 0.25 µg/mL (≈ 0.599 µM) | 4 µg/mL (≈ 9.58 µM) | 4 µg/mL (≈ 9.58 µM) | 64 µg/mL (≈ 153 µM) | > 128 µg/mL | 0.125 µg/mL (≈ 0.299 µM) |
| C[C@@H](N1CCN(c2ncccn2)CC1)[C@](O)(Cn1cncn1)c1ccc(F)cc1F [Example 18, (2R,3R)-2-(2,4-difluorophenyl)-3-(4-(pyrimidin-2-yl)piperazin-1-yl)-1-(1H-1,2,4-triazol-1-yl)butan-2-ol] | > 128 µg/mL | > 128 µg/mL | 0.125 µg/mL (≈ 0.301 µM) | 2 µg/mL (≈ 4.81 µM) | 0.125 µg/mL (≈ 0.301 µM) | 16 µg/mL (≈ 38.5 µM) | 0.125 µg/mL (≈ 0.301 µM) | 4 µg/mL (≈ 9.63 µM) | 1 µg/mL (≈ 2.41 µM) | 8 µg/mL (≈ 19.3 µM) | > 128 µg/mL | 0.125 µg/mL (≈ 0.301 µM) |

Continued, values first:

| MIC80 [1] | MIC80 [2] | MIC80 [3] | MIC80 [4] | MIC80 [5] | MIC80 [6] | MIC80 [7] | MIC80 [8] | MIC80 [9] | MIC80 [10] | MIC80 [11] | MIC80 [12] | Compound |
| --- | --- | --- | --- | --- | --- | --- | --- | --- | --- | --- | --- | --- |
| 4 µg/mL (≈ 6.6 µM) | 4 µg/mL (≈ 6.6 µM) | 0.25 µg/mL (≈ 0.413 µM) | 2 µg/mL (≈ 3.3 µM) | 1 µg/mL (≈ 1.65 µM) | 8 µg/mL (≈ 13.2 µM) | 0.125 µg/mL (≈ 0.206 µM) | 0.5 µg/mL (≈ 0.826 µM) | 1 µg/mL (≈ 1.65 µM) | 8 µg/mL (≈ 13.2 µM) | > 128 µg/mL | 0.25 µg/mL (≈ 0.413 µM) | Cc1ccc(C(=O)c2cnc3sc(C(=O)N4CCN([C@H](C)[C@](O)(Cn5cncn5)c5ccc(F)cc5F)CC4)cn23)cc1 [Example 56, (4-((2R,3R)-3-(2,4-difluorophenyl)-3-hydroxy-4-(1H-1,2,4-triazol-1-yl)butan-2-yl)piperazin-1-yl)(5-(4-methylbenzoyl)-imidazo[2,1-b]-thiazol-2-yl)methanone] |
| > 128 µg/mL | > 128 µg/mL | 0.125 µg/mL (≈ 0.23 µM) | 4 µg/mL (≈ 7.36 µM) | 1 µg/mL (≈ 1.84 µM) | > 128 µg/mL | 0.125 µg/mL (≈ 0.23 µM) | 4 µg/mL (≈ 7.36 µM) | 4 µg/mL (≈ 7.36 µM) | 32 µg/mL (≈ 58.9 µM) | > 128 µg/mL | 0.125 µg/mL (≈ 0.23 µM) | C[C@@H](N1CCN(C(=O)c2nc(-c3ccc(F)cc3)ns2)CC1)[C@](O)(Cn1cncn1)c1ccc(F)cc1F [Example 52, (3-(4-fluorophenyl)-1,2,4-thiadiazol-5-yl)(4-((2R,3R)-3-(2,4-difluorophenyl)-3-hydroxy-4-(1H-1,2,4-triazol-1-yl)butan-2-yl)piperazin-1-yl)methanone] |
| 8 µg/mL (≈ 13.5 µM) | 8 µg/mL (≈ 13.5 µM) | 0.125 µg/mL (≈ 0.211 µM) | 4 µg/mL (≈ 6.76 µM) | 1 µg/mL (≈ 1.69 µM) | 16 µg/mL (≈ 27 µM) | 0.125 µg/mL (≈ 0.211 µM) | 0.5 µg/mL (≈ 0.845 µM) | 1 µg/mL (≈ 1.69 µM) | 8 µg/mL (≈ 13.5 µM) | > 128 µg/mL | 0.125 µg/mL (≈ 0.211 µM) | CC(N1CCN(C(=O)c2cn3c(C(=O)c4ccccc4)cnc3s2)CC1)C(O)(Cn1cncn1)c1ccc(F)cc1F [Example 55, (4-((2R,3R)-3-(2,4-difluorophenyl)-3-hydroxy-4-(1H-1,2,4-triazol-1-yl)butan-2-yl)piperazin-1-yl)(5-benzoyl-imidazo[2,1,-b]-thiazol-2-yl)methanone] |
| 32 µg/mL (≈ 77.2 µM) | 32 µg/mL (≈ 77.2 µM) | 0.125 µg/mL (≈ 0.302 µM) | 1 µg/mL (≈ 2.41 µM) | 16 µg/mL (≈ 38.6 µM) | 8 µg/mL (≈ 19.3 µM) | 0.125 µg/mL (≈ 0.302 µM) | 1 µg/mL (≈ 2.41 µM) | 0.5 µg/mL (≈ 1.21 µM) | 16 µg/mL (≈ 38.6 µM) | 64 µg/mL (≈ 154 µM) | 0.125 µg/mL (≈ 0.302 µM) | C[C@@H](N1CCN(c2ccccn2)CC1)[C@](O)(Cn1cncn1)c1ccc(F)cc1F [Example 16, (2R,3R)-2-(2,4-difluorophenyl)-3-(4-(pyridin-2-yl)piperazin-1-yl)-1-(1H-1,2,4-triazol-1-yl)butan-2-ol] |
